According to ChEMBL document CHEMBL1126925, “Nonprostanoid prostacyclin mimetics. 4. Derivatives of 2-[3-[2-(4,5-diphenyl-2-oxazolyl)ethyl]phenoxy]acetic acid substituted alpha to the oxazole ring” (J Med Chem, 1993):

Species: Homo sapiens
Assay: In vitro inhibition of ADP-induced aggregation of human platelets
Assay type: functional

SMILES	IC50 [nM]
O=C(O)COc1cccc(CC(c2ccsc2)c2nc(-c3ccccc3)c(-c3ccccc3)o2)c1 (stereo unspecified)	20700
NC(=O)C(Cc1cccc(OCC(=O)O)c1)c1nc(-c2ccccc2)c(-c2ccccc2)o1 (stereo unspecified)	3750
CSC(Cc1cccc(OCC(=O)O)c1)c1nc(-c2ccccc2)c(-c2ccccc2)o1 (stereo unspecified)	1300
O=C(O)COc1cccc(CC(c2ccccc2)c2nc(-c3ccccc3)c(-c3ccccc3)o2)c1 (stereo unspecified)	23200
O=C(O)COc1cccc(CC(c2nc(-c3ccccc3)c(-c3ccccc3)o2)c2cccs2)c1 (stereo unspecified)	33200
COC(=O)C(Cc1cccc(OCC(=O)O)c1)c1nc(-c2ccccc2)c(-c2ccccc2)o1 (stereo unspecified)	80
O=C(O)COc1cccc(CC(C(=O)O)c2nc(-c3ccccc3)c(-c3ccccc3)o2)c1 (stereo unspecified)	14000
CS(=O)(=O)C(Cc1cccc(OCC(=O)O)c1)c1nc(-c2ccccc2)c(-c2ccccc2)o1 (stereo unspecified)	7960
O=C(O)COc1cccc(CC(CCO)c2nc(-c3ccccc3)c(-c3ccccc3)o2)c1 (stereo unspecified)	2920
CCOC(=O)C(Cc1cccc(OCC(=O)O)c1OC)c1nc(-c2ccccc2)c(-c2ccccc2)o1 (stereo unspecified)	1180
CCOC(=O)/C(=C\c1cccc(OCC(=O)O)c1)c1nc(-c2ccccc2)c(-c2ccccc2)o1	360
O=C(O)COc1cccc(/C=C\c2nc(-c3ccccc3)c(-c3ccccc3)o2)c1	180
CCOC(=O)C(=Cc1cccc(OCC(=O)OC)c1)c1nc(-c2ccccc2)c(-c2ccccc2)o1 [listing 1 of 2 here]	19700
CNC(=O)C(Cc1cccc(OCC(=O)O)c1)c1nc(-c2ccccc2)c(-c2ccccc2)o1 (stereo unspecified)	690
C[S+]([O-])C(Cc1cccc(OCC(=O)O)c1)c1nc(-c2ccccc2)c(-c2ccccc2)o1 (stereo unspecified)	7080
O=C(O)COc1cccc(CC(CO)c2nc(-c3ccccc3)c(-c3ccccc3)o2)c1 (stereo unspecified)	9310
O=C(O)COc1cccc(/C=C(\C(=O)O)c2nc(-c3ccccc3)c(-c3ccccc3)o2)c1	20300
O=C(O)COc1cccc(CC(CCCO)c2nc(-c3ccccc3)c(-c3ccccc3)o2)c1 (stereo unspecified)	1700
CCOC(=O)C(=Cc1cccc(OCC(=O)OC)c1)c1nc(-c2ccccc2)c(-c2ccccc2)o1 [listing 2 of 2 here]	2000
CCOP(=O)(OCC)C(Cc1cccc(OCC(=O)O)c1)c1nc(-c2ccccc2)c(-c2ccccc2)o1 (stereo unspecified)	900

Results, then the molecule that gave them:

IC50 [nM]	SMILES
13000	O=C(O)COc1cccc(/C=C/c2nc(-c3ccccc3)c(-c3ccccc3)o2)c1
250	N#C/C(=C\c1cccc(OCC(=O)O)c1)c1nc(-c2ccccc2)c(-c2ccccc2)o1
3660	CC(C)(C)C(Cc1cccc(OCC(=O)O)c1)c1nc(-c2ccccc2)c(-c2ccccc2)o1 (stereo unspecified)
1220	CC(C)OC(=O)C(Cc1cccc(OCC(=O)O)c1)c1nc(-c2ccccc2)c(-c2ccccc2)o1 (stereo unspecified)
970	CC(C)C(Cc1cccc(OCC(=O)O)c1)c1nc(-c2ccccc2)c(-c2ccccc2)o1 (stereo unspecified)
570	C=CCC(Cc1cccc(OCC(=O)O)c1)c1nc(-c2ccccc2)c(-c2ccccc2)o1 (stereo unspecified)
15000	CNC(=O)/C(=C\c1cccc(OCC(=O)O)c1)c1nc(-c2ccccc2)c(-c2ccccc2)o1
> 60000	CCOC(=O)/C(=C\c1cccc(OCC(=O)OC(C)(C)C)c1)c1nc(-c2ccccc2)c(-c2ccccc2)o1
130	CCOC(=O)/C(=C\c1cccc(OCC(=O)O)c1OC)c1nc(-c2ccccc2)c(-c2ccccc2)o1
4680	O=C(O)COc1cccc(CC(CCCCO)c2nc(-c3ccccc3)c(-c3ccccc3)o2)c1 (stereo unspecified)
12200	CN(C)C(=O)C(=Cc1cccc(OCC(=O)O)c1)c1nc(-c2ccccc2)c(-c2ccccc2)o1
120	CCOC(=O)C(Cc1cccc(OCC(=O)O)c1)c1nc(-c2ccccc2)c(-c2ccccc2)o1 (stereo unspecified)
3560	CN(C)C(=O)C(Cc1cccc(OCC(=O)O)c1)c1nc(-c2ccccc2)c(-c2ccccc2)o1 (stereo unspecified)
7680	C=CCC(Cc1cccc(OCC(=O)O)c1)(C(=O)OCC)c1nc(-c2ccccc2)c(-c2ccccc2)o1 (stereo unspecified)
440	N#CC(Cc1cccc(OCC(=O)O)c1)c1nc(-c2ccccc2)c(-c2ccccc2)o1 (stereo unspecified)
2	CC#CCC(C)[C@H](O)/C=C/[C@@H]1[C@H]2C/C(=C/CCCC(=O)O)C[C@H]2C[C@H]1O (stereo partly specified) [ILOPROST]
